Source: patent publication US20230312752A1 (Brown University, priority 2021, published 2023)

Legend:
Type in all cases: cell-based, SARS-CoV-2
[1] = tested on: pseudovirus with alpha, beta or gamma S protein mutations
[2] = tested on: pseudovirus with Delta S protein mutations
[3] = tested on: pseudoviruses with omicron S protein mutations
[4] = tested on: pseudovirus with S protein D614G, E484K, UK, SA, BZ variants

Molecule | rCHI3L1 stimulatory effects on pseudovirus uptake [1] | uptake of pseudovirus in cells treated with and without rCHI3L1 [1] | CHI3L1-stimulated pseudovirus uptake [2] | pseudovirus uptake when exogenous CHI3L1 was not administered [2] | epithelial cell uptake of pseudoviruses [3] | cellular integration of Spike proteins [4] | uptake of pseudovirus [2] | uptake of pseudoviruses [3] | uptake of pseudoviruses in cells treated with and without rCHI3L1 [1]
C[C@H]1O[C@H](O[C@H]2[C@H](O)[C@@H](O)[C@@H](O)[C@H](O)[C@@H]2O)[C@@H](N)C[C@@H]1NC(=N)C(=O)O [Kasugamycin, 2-amino-2-[(2R,3S,5S,6R)-5-amino-2-methyl-6-[(2R,3S,5S,6S)-2,3,4,5,6-pentahydroxycyclohexyl]oxyoxan-3-yl]iminoacetic acid] | markedly decreased | markedly diminished | abrogated | diminished | inhibited |  |  |  | 
rhCHI3L1: recombinant human CHI3L1 (chitinase 3 like 1) protein, from R&D Inc. or generated at Brown University |  |  |  |  |  | stimulated | potent stimulator | potent stimulator | 
FRG: murine monoclonal anti-CHI3L1 antibody raised against amino acid 223-234 of human CHI3L1; heavy chain SEQ ID NO: 13, light chain SEQ ID NO: 14 (antibody, V domains shown) VH: QIQLVQSGPELKKPGETVKISCKASGYTFTNYGMNWVKQAPGKGLKWMGWINTYTGEPTYADDFKGRFAFSLETSASTAYLQINNLRNEDMSTYFCARLGYGKFYVMDYWGQGTSVTVSS VL: DVVMTQTPLSLPVSLGDQASISCRSSQSLVHSNGNTYLHWYLQKPGQSPKLLIYKVSNRFSGVPDRFSGSGSGTDFTLKISRVEAEDLGVYFCSQSTHVTWTFGGGTKLEIK |  | markedly diminished | abrogated | diminished | inhibited |  |  |  | markedly diminished
